The subject of data set [1] is mouse leukemia cells L1210. As to the kind of experiment: Antitumor activity against mouse leukemia L1210, intraperitoneal administration. An excerpt:
Antitumor activity of 5-fluoro-2'-deoxyuridine derivatives (in intraperitoneal administration)
Experiments were made with the 5-fluoro-2'-deoxyuridine derivatives of this invention in order to know its antitumor effect against mouse leukemia cells L1210 in comparison with its parent compound 5-fluoro-2'-deoxyuridine and other known antitumor agents.
BDF1 mice (male, 6-week-old, Ca 24 g, in groups of 5 mice), which were abdominally implanted with 10^5 cells of mouse leukemia L1210, which had been collected after 7-day cultivation in other mice, were used in the experiments.
The respective agents were given to the experimental mice intraperitoneally once a day for 5 consecutive days starting 24 hours after the implantation of tumor cells.
The antitumor effect of the respective agents were indicated by the rate of increase in the length of the survival period obtained from the groups given the agents in contrast with the length of the survival period of the control group (not given the agents).
The dose, which is required to increase the lifespan of the experimental mice 30% as compared with the control group, is indicated by ILS30 and the dose, which is required to effect the maximum increase of lifespan (Max. ILS(%)), is indicated by ILS max. ILS max./ILS30 is to represent the therapeutic index which indicates the safety of the agents.

A short description of data set [2]: Release of FUdR from the compound due to the enzyme system in the plasma. The data set is classed as in vitro ADME. Particulars: 4×10^-5 M compound (FUdR 9.85 μg/ml), 20% rat plasma, pH 7.0, 37° C. Here is the method: Behavior to release FUdR from the compound due to the enzyme system in the plasma
The release rates of 5-fluoro-2'-deoxyuridine (FUdR) from the compound of this invention at 37° C. in the rat plasma (20%), diluted with 0.1M phosphate buffer, pH 7.0, were measured.
The compound of this invention was added to the plasma diluted with an isotonic solution of phosphate buffer to a concentration of 4×10^-5 M (corresponding to FUdR 9.85 μg/ml) and was incubated at 37° C. The sample (10 μl) was injected into an HPLC column periodically to determine the amount (μg/ml) of 5-fluoro-2'-deoxyuridine released by the enzymatic reaction.

The nature of data set [3]: Rate of hydrolysis of 5-fluoro-2'-deoxyuridine derivatives by esterase. The format is in vitro ADME, porcine. Particulars: pig, liver esterase, pH 7, enzyme concentration 150.0 units/ml, pH 7.00, 37° C.; read-out: t 1/2 (time for 1/2 of the derivative to be converted into parent compound). Here is the method: Rate of hydrolysis of 5-fluoro-2'-deoxyuridine derivatives by esterase […] A 10 μg/ml isotonic solution of the experimental compound in a phosphate buffer (pH 7.00) was prepared and the […] (manufactured by Sigma) extracted from the porcine liver was added to the solution at 37° C. in such a way as to provide the enzyme concentration ranging from 0.03 units/ml to 150 units/ml. Then the sample (10 μl) was injected into an HPLC column periodically to determine the amount of 5-fluoro-2'-deoxyuridine release by the enzyme reaction.

Data set [4] is described as follows: Change in body weight of L1210-bearing mice, oral administration. Particulars: days 1-4. The format is in vivo, BDF1 mice. Here is the method: (§1) The respective agents were administered orally three times, i.e. on the first day, third day, and fifth day, starting 24 hours after the implantation of tumor cells.
The next data set relates to mouse leukemia L1210. As to the kind of experiment: Antitumor activity against mouse leukemia L1210, oral administration. The format is in vivo, BDF1 mice. Here is the method: as §1
Where [5] appears, read: i.p. once a day for 5 consecutive days, L1210-bearing BDF1 mice.

The values below come from patent US4757139A, “5-fluoro-2'-deoxyuridine derivative, processes for preparing same and antitumor composition containing the same” (Teijin Limited, priority 1983, dated 1988).

With `CCCCCCCCCCCC(=O)OC[C@H]1O[C@@H](n2cc(F)c(=O)[nH]c2=O)C[C@@H]1OC(=O)CCCCCCCCCCC` [3',5'-didodecanoyl-5-fluoro-2'-deoxyuridine], the “ILS30 (dose required to increase lifespan 30%)” value in data set [1] (setting [5]) was determined as 1.0 µmol·days/kg. The “Max. ILS (%)” value in data set [1] (setting [5]) is 62%. The “Therapeutic index (ILS max./ILS30)” value in data set [1] (mouse, in vivo, ip) was 45.0. Moreover, the “Release rate of 5-fluoro-2'-deoxyuridine” value in data set [2] (after 100 min) is 1.2 µg/mL; in data set [2] (after 200 min) it was 2.2 µg/mL; in data set [2] (after 300 min), 2.9 µg/mL; in data set [2] (after 400 min), 3.8 µg/mL; in data set [2] (after 500 min) it was 4.2 µg/mL. For the same compound, the half-life in data set [3] amounted to 66.7 h. For the same compound, the “Change in body weight (1-4 d, g/mouse)” value in data set [4] (dose 10 mg/kg/day) is “+1.0 g/mouse”; in data set [4] (dose 30 mg/kg/day), “+1.0 g/mouse”; in data set [4] (dose 100 mg/kg/day) it was 0 g/mouse; in data set [4] (dose 300 mg/kg/day), -2.6 g/mouse. For the same compound, the “Antitumor effect in oral administration compared with 5-fluoro-2'-deoxyuridine and 3',5'-dioctanoyl-5-fluoro-2'-deoxyuridine” value in the data set on mouse leukemia L1210 (L1210-bearing mice, result in words) is “much higher antitumor effect”. Moreover, the “ILS (%)” value in the data set with mouse leukemia L1210 (days 1, 3, 5, dose 10 mg/kg/day) worked out at 0%; in the data set on mouse leukemia L1210 (days 1, 3, 5, dose 30 mg/kg/day) it was 5%; in the data set on mouse leukemia L1210 (days 1, 3, 5, dose 100 mg/kg/day), 15%; with mouse leukemia L1210 (days 1, 3, 5, dose 300 mg/kg/day), 40%.
